Measurements published in ChEMBL document CHEMBL1158210, “New Destruxins from the Entomopathogenic Fungus Aschersonia sp” (1996).
≈ marks a conversion by molar mass, not a printed value. Calls of active or inactive are those of the source. No cut-off for these calls is given here. Starred links: 1 amine or outer side, 2 acyl side, 3 side chain; linkers in the order of their positions; H or OH if unused. Non-standard residues stand in square brackets, D forms with d. Residues, ends and D or L forms follow the SMILES beside them. NMeI = CC[C@H](C)[C@H](NC)C(=O)O; X1 = C=CC[C@H](O[*:1])C(=O)[*:2]; Hica(2S) = CC(C)C[C@H](O)C(=O)O; NMeA = CN[C@@H](C)C(=O)O; βAla = NCCC(=O)O

Experiments:
[1] = tested on: Drosophila melanogaster; assay: Insecticidal activity against Drosophila melanogaster assessed as mortality at 400 ug/ml after 48 hrs; format: functional, organism-based
[2] = tested on: Drosophila melanogaster; assay: Insecticidal activity against Drosophila melanogaster assessed as mortality at 200 ug/ml after 40 hrs; format: functional, organism-based
[3] = tested on: Drosophila melanogaster; assay: Insecticidal activity against Drosophila melanogaster after 40 hrs; format: functional

Row | Structure (SMILES) | Activity [1] | Activity [2] | LC50 [3]
1 | CC[C@H](C)[C@@H]1NC(=O)[C@@H]2CCCN2C(=O)[C@H](CC(C)C)OC(=O)CCNC(=O)[C@H](C)N(C)C(=O)[C@H]([C@@H](C)CC)N(C)C1=O (cyclo(I[NMeI][NMeA][βAla][Hica(2S)]P)) | inactive |  | 
2 | C=CCC1OC(=O)CCNC(=O)[C@H](C)N(C)C(=O)[C@H]([C@@H](C)CC)N(C)C(=O)[C@H]([C@@H](C)CC)NC(=O)[C@@H]2C(C)CCN2C1=O (stereo not given in full) [DESTRUXIN A5] |  | Active | 52 µg/mL (≈ 85.8 µM)
3 | C=CC[C@@H]1OC(=O)CCNC(=O)[C@H](C)N(C)C(=O)[C@H]([C@@H](C)CC)N(C)C(=O)[C@H]([C@@H](C)CC)NC(=O)[C@@H]2CCCN2C1=O [destruxin A4] (cyclo(I[NMeI][NMeA][βAla][X1]P)) |  | Active | 41 µg/mL (≈ 69.3 µM)
